In ChEMBL document CHEMBL1144858, “3D-QSAR CoMFA studies on bis-coumarine analogues as urease inhibitors: a strategic design in anti-urease agents” (Bioorg Med Chem, 2008):
pIC50: −log10 of the molar value.

Biological target: Urease (Canavalia ensiformis, UniProt P07374)
Assay: Inhibition of jack bean urease

Chain of Urease (P07374 whole entry): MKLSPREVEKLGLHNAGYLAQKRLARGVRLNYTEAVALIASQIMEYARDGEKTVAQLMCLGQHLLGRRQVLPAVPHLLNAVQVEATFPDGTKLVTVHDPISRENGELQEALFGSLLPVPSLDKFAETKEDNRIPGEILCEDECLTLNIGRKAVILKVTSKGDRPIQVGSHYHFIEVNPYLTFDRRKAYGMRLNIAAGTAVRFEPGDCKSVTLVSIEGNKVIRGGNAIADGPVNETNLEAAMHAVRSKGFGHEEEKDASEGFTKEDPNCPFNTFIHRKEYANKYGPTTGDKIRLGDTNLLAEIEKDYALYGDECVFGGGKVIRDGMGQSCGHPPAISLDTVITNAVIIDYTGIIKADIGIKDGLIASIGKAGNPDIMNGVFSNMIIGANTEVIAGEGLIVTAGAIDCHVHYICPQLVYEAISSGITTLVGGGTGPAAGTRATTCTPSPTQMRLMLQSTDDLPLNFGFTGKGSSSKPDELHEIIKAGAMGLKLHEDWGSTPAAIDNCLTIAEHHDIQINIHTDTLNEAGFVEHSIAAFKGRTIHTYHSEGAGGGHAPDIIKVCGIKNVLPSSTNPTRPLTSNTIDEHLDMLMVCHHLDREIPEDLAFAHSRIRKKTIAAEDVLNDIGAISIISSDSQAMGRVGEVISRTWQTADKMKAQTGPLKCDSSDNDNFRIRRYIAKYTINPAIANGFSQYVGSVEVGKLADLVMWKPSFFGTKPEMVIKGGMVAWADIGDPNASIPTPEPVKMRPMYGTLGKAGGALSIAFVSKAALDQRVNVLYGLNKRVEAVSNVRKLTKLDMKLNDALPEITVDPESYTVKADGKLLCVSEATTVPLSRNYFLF

In the case of `C/C=C/C(c1c(O)c2ccccc2oc1=O)c1c(O)c2ccccc2oc1=O`, the pIC50 was 4.36.
`O=c1oc2ccccc2c(O)c1C(c1cccc([N+](=O)[O-])c1)c1c(O)c2ccccc2oc1=O` showed a pIC50 of 4.09.
For `CC(C)c1ccc(C(c2c(O)oc3ccccc3c2=O)c2c(O)oc3ccccc3c2=O)cc1`, the pIC50 was 4.08.
`O=c1oc2ccccc2c(O)c1C(c1ccc[nH]1)c1c(O)c2ccccc2oc1=O` showed a pIC50 of 4.33.
`O=c1oc2ccccc2c(O)c1C(c1ccccc1Br)c1c(O)c2ccccc2oc1=O` showed a pIC50 of 4.13.
`O=c1oc2ccccc2c(O)c1C(/C=C/c1ccccc1)c1c(O)c2ccccc2oc1=O` was tested, and the pIC50 was 4.22.
For `O=c1oc2ccccc2c(O)c1Cc1c(O)c2ccccc2oc1=O` [DICUMAROL], the pIC50 was 4.82.
In the case of `COc1ccc(C(c2c(O)c3ccccc3oc2=O)c2c(O)c3ccccc3oc2=O)cc1OC`, the pIC50 was 4.10.
In the case of `O=c1oc2ccccc2c(O)c1C(c1c(O)c2ccccc2oc1=O)c1c[nH]c2ccccc12`, the pIC50 was 4.21.
With `CCOc1cc(C(c2c(O)c3ccccc3oc2=O)c2c(O)c3ccccc3oc2=O)ccc1O` the pIC50 was 4.04.
`COc1cc(C(c2c(O)oc3ccccc3c2=O)c2c(O)oc3ccccc3c2=O)cc(OC)c1OC` was tested, and the pIC50 was 4.08.
`COc1ccc(C(c2c(O)c3ccccc3oc2=O)c2c(O)c3ccccc3oc2=O)cc1` was tested, and the pIC50 was 4.22.
`O=c1c(C(c2ccc([N+](=O)[O-])cc2)c2c(O)oc3ccccc3c2=O)c(O)oc2ccccc12` was tested, and the pIC50 was 4.15.
Work on `Nc1cccc(C(c2c(O)c3ccccc3oc2=O)c2c(O)c3ccccc3oc2=O)c1` yielded a pIC50 of 4.12.
Molecule `O=c1oc2ccccc2c(O)c1C(c1cccc(O)c1)c1c(O)c2ccccc2oc1=O` has a pIC50 of 4.14.
`O=c1oc2ccccc2c(O)c1C(c1ccncc1)c1c(O)c2ccccc2oc1=O` showed a pIC50 of 4.23.
In the case of `CC(c1ccccc1)C(c1c(O)c2ccccc2oc1=O)c1c(O)c2ccccc2oc1=O` (stereo not drawn), the pIC50 was 4.28.
`O=c1oc2ccccc2c(O)c1C(CCc1ccccc1)c1c(O)c2ccccc2oc1=O` gave a pIC50 of 4.17.
For `COc1ccccc1C(c1c(O)c2ccccc2oc1=O)c1c(O)c2ccccc2oc1=O`, the pIC50 was 4.08.
For `CCCCCC(c1c(O)c2ccccc2oc1=O)c1c(O)c2ccccc2oc1=O`, the pIC50 was 4.06.
Molecule `CCCC(c1c(O)c2ccccc2oc1=O)c1c(O)c2ccccc2oc1=O` has a pIC50 of 4.17.
`O=c1oc2ccccc2c(O)c1C(c1ccccc1Cl)c1c(O)c2ccccc2oc1=O` gave a pIC50 of 4.07.
`CCCCC(c1c(O)c2ccccc2oc1=O)c1c(O)c2ccccc2oc1=O` gave a pIC50 of 4.19.
`COc1cccc(C(c2c(O)c3ccccc3oc2=O)c2c(O)c3ccccc3oc2=O)c1` gave a pIC50 of 4.25.
`O=c1oc2ccccc2c(O)c1C(c1cccc(Cl)c1)c1c(O)c2ccccc2oc1=O` gave a pIC50 of 4.13.
`CC(c1c(O)c2ccccc2oc1=O)c1c(O)c2ccccc2oc1=O` gave a pIC50 of 4.20.
`O=c1oc2ccccc2c(O)c1C(c1cccnc1)c1c(O)c2ccccc2oc1=O` was tested, and the pIC50 was 4.45.
`O=c1c(C(c2ccc(O)cc2)c2c(O)oc3ccccc3c2=O)c(O)oc2ccccc12` was tested, and the pIC50 was 4.13.
